Data on 20 substances can be found in the OligoGym collection.

Oligonucleotides are given in HELM: sugar(base)linkage, 5' to 3'; d 2'-deoxyribose, r ribose, m 2'-O-methylribose, p phosphate. ss, as = sense and antisense strand
Note: test concentration or dose not given here.

This data set has as its target UBE2D3. The data set is described as follows: reporter assay of Huesken 2005. Conditions: siRNA. In general terms: Reporter assays use an easily measured gene product as a stand-in for the process of interest.
As to “RNA1{r(A)p.r(G)p.r(C)p.r(A)p.r(U)p.r(U)p.r(U)p.r(G)p.r(U)p.r(C)p.r(U)p.r(C)p.r(G)p.r(A)p.r(U)p.r(A)p.r(U)p.r(U)p.r(C)p.d(T)p.d(T)}|RNA2{r(G)p.r(A)p.r(A)p.r(U)p.r(A)p.r(U)p.r(C)p.r(G)p.r(A)p.r(G)p.r(A)p.r(C)p.r(A)p.r(A)p.r(A)p.r(U)p.r(G)p.r(C)p.r(U)p.d(G)p.d(C)}$$$RNA1{StrandType:ss}|RNA2{StrandType:as}$”, the normalised inhibition (eCFP-eYFP dual reporter) was found to be 79.2%.

As for “RNA1{r(C)p.r(U)p.r(G)p.r(C)p.r(U)p.r(U)p.r(U)p.r(A)p.r(A)p.r(C)p.r(A)p.r(A)p.r(U)p.r(U)p.r(U)p.r(C)p.r(U)p.r(A)p.r(A)p.d(T)p.d(T)}|RNA2{r(U)p.r(U)p.r(A)p.r(G)p.r(A)p.r(A)p.r(A)p.r(U)p.r(U)p.r(G)p.r(U)p.r(U)p.r(A)p.r(A)p.r(A)p.r(G)p.r(C)p.r(A)p.r(G)p.d(G)p.d(C)}$$$RNA1{StrandType:ss}|RNA2{StrandType:as}$”, the normalised inhibition (eCFP-eYFP dual reporter) was determined as 89.7%.

Consider “RNA1{r(U)p.r(G)p.r(C)p.r(A)p.r(U)p.r(U)p.r(U)p.r(A)p.r(C)p.r(A)p.r(A)p.r(C)p.r(A)p.r(A)p.r(G)p.r(A)p.r(A)p.r(U)p.r(U)p.d(T)p.d(T)}|RNA2{r(A)p.r(A)p.r(U)p.r(U)p.r(C)p.r(U)p.r(U)p.r(G)p.r(U)p.r(U)p.r(G)p.r(U)p.r(A)p.r(A)p.r(A)p.r(U)p.r(G)p.r(C)p.r(A)p.d(A)p.d(C)}$$$RNA1{StrandType:ss}|RNA2{StrandType:as}$”, for which the normalised inhibition (eCFP-eYFP dual reporter) worked out at 83.3%.

As to “RNA1{r(G)p.r(U)p.r(U)p.r(U)p.r(C)p.r(A)p.r(U)p.r(U)p.r(G)p.r(G)p.r(C)p.r(A)p.r(A)p.r(G)p.r(C)p.r(C)p.r(A)p.r(C)p.r(A)p.d(T)p.d(T)}|RNA2{r(U)p.r(G)p.r(U)p.r(G)p.r(G)p.r(C)p.r(U)p.r(U)p.r(G)p.r(C)p.r(C)p.r(A)p.r(A)p.r(U)p.r(G)p.r(A)p.r(A)p.r(A)p.r(C)p.d(A)p.d(T)}$$$RNA1{StrandType:ss}|RNA2{StrandType:as}$”, the normalised inhibition (eCFP-eYFP dual reporter) worked out at 94.9%.

On to “RNA1{r(U)p.r(U)p.r(U)p.r(C)p.r(U)p.r(A)p.r(A)p.r(A)p.r(G)p.r(U)p.r(U)p.r(C)p.r(U)p.r(U)p.r(U)p.r(U)p.r(A)p.r(U)p.r(C)p.d(T)p.d(T)}|RNA2{r(G)p.r(A)p.r(U)p.r(A)p.r(A)p.r(A)p.r(A)p.r(G)p.r(A)p.r(A)p.r(C)p.r(U)p.r(U)p.r(U)p.r(A)p.r(G)p.r(A)p.r(A)p.r(A)p.d(T)p.d(T)}$$$RNA1{StrandType:ss}|RNA2{StrandType:as}$”, for which the normalised inhibition (eCFP-eYFP dual reporter) was 30.6%.

For “RNA1{r(G)p.r(A)p.r(U)p.r(C)p.r(C)p.r(A)p.r(A)p.r(A)p.r(C)p.r(C)p.r(C)p.r(A)p.r(G)p.r(A)p.r(U)p.r(G)p.r(A)p.r(C)p.r(C)p.d(T)p.d(T)}|RNA2{r(G)p.r(G)p.r(U)p.r(C)p.r(A)p.r(U)p.r(C)p.r(U)p.r(G)p.r(G)p.r(G)p.r(U)p.r(U)p.r(U)p.r(G)p.r(G)p.r(A)p.r(U)p.r(C)p.d(A)p.d(C)}$$$RNA1{StrandType:ss}|RNA2{StrandType:as}$”, the normalised inhibition (eCFP-eYFP dual reporter) is 56.5%.

For the substance “RNA1{r(U)p.r(C)p.r(U)p.r(A)p.r(A)p.r(G)p.r(A)p.r(U)p.r(C)p.r(A)p.r(C)p.r(A)p.r(G)p.r(U)p.r(G)p.r(G)p.r(U)p.r(C)p.r(G)p.d(T)p.d(T)}|RNA2{r(C)p.r(G)p.r(A)p.r(C)p.r(C)p.r(A)p.r(C)p.r(U)p.r(G)p.r(U)p.r(G)p.r(A)p.r(U)p.r(C)p.r(U)p.r(U)p.r(A)p.r(G)p.r(A)p.d(A)p.d(T)}$$$RNA1{StrandType:ss}|RNA2{StrandType:as}$”, the normalised inhibition (eCFP-eYFP dual reporter) amounted to 43.3%.

In the case of “RNA1{r(U)p.r(U)p.r(U)p.r(C)p.r(A)p.r(U)p.r(U)p.r(G)p.r(G)p.r(C)p.r(A)p.r(A)p.r(G)p.r(C)p.r(C)p.r(A)p.r(C)p.r(A)p.r(A)p.d(T)p.d(T)}|RNA2{r(U)p.r(U)p.r(G)p.r(U)p.r(G)p.r(G)p.r(C)p.r(U)p.r(U)p.r(G)p.r(C)p.r(C)p.r(A)p.r(A)p.r(U)p.r(G)p.r(A)p.r(A)p.r(A)p.d(C)p.d(A)}$$$RNA1{StrandType:ss}|RNA2{StrandType:as}$”, the normalised inhibition (eCFP-eYFP dual reporter) amounted to 85.3%.

Turning to “RNA1{r(U)p.r(A)p.r(U)p.r(G)p.r(G)p.r(G)p.r(A)p.r(C)p.r(C)p.r(U)p.r(A)p.r(A)p.r(U)p.r(G)p.r(A)p.r(C)p.r(A)p.r(G)p.r(C)p.d(T)p.d(T)}|RNA2{r(G)p.r(C)p.r(U)p.r(G)p.r(U)p.r(C)p.r(A)p.r(U)p.r(U)p.r(A)p.r(G)p.r(G)p.r(U)p.r(C)p.r(C)p.r(C)p.r(A)p.r(U)p.r(A)p.d(A)p.d(T)}$$$RNA1{StrandType:ss}|RNA2{StrandType:as}$”, the normalised inhibition (eCFP-eYFP dual reporter) turned out to be 44.4%.

For “RNA1{r(A)p.r(U)p.r(G)p.r(U)p.r(U)p.r(U)p.r(C)p.r(A)p.r(U)p.r(U)p.r(G)p.r(G)p.r(C)p.r(A)p.r(A)p.r(G)p.r(C)p.r(C)p.r(A)p.d(T)p.d(T)}|RNA2{r(U)p.r(G)p.r(G)p.r(C)p.r(U)p.r(U)p.r(G)p.r(C)p.r(C)p.r(A)p.r(A)p.r(U)p.r(G)p.r(A)p.r(A)p.r(A)p.r(C)p.r(A)p.r(U)p.d(A)p.d(T)}$$$RNA1{StrandType:ss}|RNA2{StrandType:as}$”, the normalised inhibition (eCFP-eYFP dual reporter) turned out to be 90.7%.

“RNA1{r(U)p.r(G)p.r(G)p.r(U)p.r(C)p.r(G)p.r(C)p.r(C)p.r(U)p.r(G)p.r(C)p.r(U)p.r(U)p.r(U)p.r(A)p.r(A)p.r(C)p.r(A)p.r(A)p.d(T)p.d(T)}|RNA2{r(U)p.r(U)p.r(G)p.r(U)p.r(U)p.r(A)p.r(A)p.r(A)p.r(G)p.r(C)p.r(A)p.r(G)p.r(G)p.r(C)p.r(G)p.r(A)p.r(C)p.r(C)p.r(A)p.d(C)p.d(T)}$$$RNA1{StrandType:ss}|RNA2{StrandType:as}$”: the normalised inhibition (eCFP-eYFP dual reporter) amounted to 90.3%.

For the substance “RNA1{r(C)p.r(A)p.r(A)p.r(G)p.r(G)p.r(C)p.r(G)p.r(G)p.r(U)p.r(G)p.r(U)p.r(A)p.r(U)p.r(U)p.r(C)p.r(U)p.r(U)p.r(U)p.r(U)p.d(T)p.d(T)}|RNA2{r(A)p.r(A)p.r(A)p.r(A)p.r(G)p.r(A)p.r(A)p.r(U)p.r(A)p.r(C)p.r(A)p.r(C)p.r(C)p.r(G)p.r(C)p.r(C)p.r(U)p.r(U)p.r(G)p.d(A)p.d(T)}$$$RNA1{StrandType:ss}|RNA2{StrandType:as}$”, the normalised inhibition (eCFP-eYFP dual reporter) worked out at 104%.

Turning to “RNA1{r(A)p.r(U)p.r(U)p.r(U)p.r(A)p.r(U)p.r(C)p.r(A)p.r(U)p.r(C)p.r(C)p.r(A)p.r(A)p.r(A)p.r(U)p.r(A)p.r(U)p.r(U)p.r(A)p.d(T)p.d(T)}|RNA2{r(U)p.r(A)p.r(A)p.r(U)p.r(A)p.r(U)p.r(U)p.r(U)p.r(G)p.r(G)p.r(A)p.r(U)p.r(G)p.r(A)p.r(U)p.r(A)p.r(A)p.r(A)p.r(U)p.d(T)p.d(C)}$$$RNA1{StrandType:ss}|RNA2{StrandType:as}$”, the normalised inhibition (eCFP-eYFP dual reporter) amounted to 76.2%.

“RNA1{r(G)p.r(G)p.r(G)p.r(A)p.r(U)p.r(G)p.r(A)p.r(U)p.r(A)p.r(U)p.r(G)p.r(U)p.r(U)p.r(U)p.r(C)p.r(A)p.r(U)p.r(U)p.r(G)p.d(T)p.d(T)}|RNA2{r(C)p.r(A)p.r(A)p.r(U)p.r(G)p.r(A)p.r(A)p.r(A)p.r(C)p.r(A)p.r(U)p.r(A)p.r(U)p.r(C)p.r(A)p.r(U)p.r(C)p.r(C)p.r(C)p.d(C)p.d(A)}$$$RNA1{StrandType:ss}|RNA2{StrandType:as}$”: the normalised inhibition (eCFP-eYFP dual reporter) turned out to be 95%.

With “RNA1{r(C)p.r(A)p.r(A)p.r(G)p.r(C)p.r(C)p.r(A)p.r(C)p.r(A)p.r(A)p.r(U)p.r(U)p.r(A)p.r(U)p.r(G)p.r(G)p.r(G)p.r(A)p.r(C)p.d(T)p.d(T)}|RNA2{r(G)p.r(U)p.r(C)p.r(C)p.r(C)p.r(A)p.r(U)p.r(A)p.r(A)p.r(U)p.r(U)p.r(G)p.r(U)p.r(G)p.r(G)p.r(C)p.r(U)p.r(U)p.r(G)p.d(C)p.d(C)}$$$RNA1{StrandType:ss}|RNA2{StrandType:as}$”, the normalised inhibition (eCFP-eYFP dual reporter) is 35.2%.

Regarding “RNA1{r(C)p.r(U)p.r(A)p.r(A)p.r(G)p.r(G)p.r(U)p.r(U)p.r(G)p.r(C)p.r(A)p.r(U)p.r(U)p.r(U)p.r(A)p.r(C)p.r(A)p.r(A)p.r(C)p.d(T)p.d(T)}|RNA2{r(G)p.r(U)p.r(U)p.r(G)p.r(U)p.r(A)p.r(A)p.r(A)p.r(U)p.r(G)p.r(C)p.r(A)p.r(A)p.r(C)p.r(C)p.r(U)p.r(U)p.r(A)p.r(G)p.d(G)p.d(T)}$$$RNA1{StrandType:ss}|RNA2{StrandType:as}$”, the normalised inhibition (eCFP-eYFP dual reporter) came out at 80.9%.

On to “RNA1{r(G)p.r(A)p.r(U)p.r(G)p.r(A)p.r(U)p.r(A)p.r(U)p.r(G)p.r(U)p.r(U)p.r(U)p.r(C)p.r(A)p.r(U)p.r(U)p.r(G)p.r(G)p.r(C)p.d(T)p.d(T)}|RNA2{r(G)p.r(C)p.r(C)p.r(A)p.r(A)p.r(U)p.r(G)p.r(A)p.r(A)p.r(A)p.r(C)p.r(A)p.r(U)p.r(A)p.r(U)p.r(C)p.r(A)p.r(U)p.r(C)p.d(C)p.d(C)}$$$RNA1{StrandType:ss}|RNA2{StrandType:as}$”, for which the normalised inhibition (eCFP-eYFP dual reporter) was found to be 66.1%.

Take “RNA1{r(A)p.r(C)p.r(G)p.r(G)p.r(A)p.r(U)p.r(C)p.r(U)p.r(A)p.r(U)p.r(A)p.r(A)p.r(A)p.r(A)p.r(C)p.r(A)p.r(G)p.r(A)p.r(C)p.d(T)p.d(T)}|RNA2{r(G)p.r(U)p.r(C)p.r(U)p.r(G)p.r(U)p.r(U)p.r(U)p.r(U)p.r(A)p.r(U)p.r(A)p.r(G)p.r(A)p.r(U)p.r(C)p.r(C)p.r(G)p.r(U)p.d(G)p.d(C)}$$$RNA1{StrandType:ss}|RNA2{StrandType:as}$”: the normalised inhibition (eCFP-eYFP dual reporter) was 68.3%.

Take “RNA1{r(C)p.r(U)p.r(A)p.r(C)p.r(A)p.r(G)p.r(A)p.r(C)p.r(U)p.r(A)p.r(C)p.r(C)p.r(C)p.r(C)p.r(U)p.r(U)p.r(C)p.r(A)p.r(A)p.d(T)p.d(T)}|RNA2{r(U)p.r(U)p.r(G)p.r(A)p.r(A)p.r(G)p.r(G)p.r(G)p.r(G)p.r(U)p.r(A)p.r(G)p.r(U)p.r(C)p.r(U)p.r(G)p.r(U)p.r(A)p.r(G)p.d(G)p.d(A)}$$$RNA1{StrandType:ss}|RNA2{StrandType:as}$”: the normalised inhibition (eCFP-eYFP dual reporter) turned out to be 94.9%.

As for “RNA1{r(A)p.r(U)p.r(C)p.r(C)p.r(A)p.r(A)p.r(A)p.r(C)p.r(C)p.r(C)p.r(A)p.r(G)p.r(A)p.r(U)p.r(G)p.r(A)p.r(C)p.r(C)p.r(C)p.d(T)p.d(T)}|RNA2{r(G)p.r(G)p.r(G)p.r(U)p.r(C)p.r(A)p.r(U)p.r(C)p.r(U)p.r(G)p.r(G)p.r(G)p.r(U)p.r(U)p.r(U)p.r(G)p.r(G)p.r(A)p.r(U)p.d(C)p.d(A)}$$$RNA1{StrandType:ss}|RNA2{StrandType:as}$”, the normalised inhibition (eCFP-eYFP dual reporter) is 44.5%.
